Laboratory results reported in patent JP2014001205A, “動物の寄生虫防除剤” (Nissan Chemical Corp, priority 2012, dated 2014).

What follows are compounds tested on cat flea (Ctenocephalides felis) adults [ネコノミ(Ctenocephalides felis)成虫] (assay: Efficacy test against cat flea (Test Example 1), glass container film contact). Details: 96 h, 10μg/cm2, 5 adults (mixed sex), 25℃, 4 days, duplicate, read-out: efficacy (number of insects with abnormal behaviour due to compound / number released × 100).
Format: in vivo

| SMILES | pest or weed control at 10 µg/cm2 |
| --- | --- |
| CCN(C(=O)CCCSC)c1cn(-c2cccnc2)nc1Cl [1−520] | ≥ 80% |
| CCNC(=O)N(C)c1cn(-c2cccnc2)nc1Cl [1−551] | ≥ 80% |
| CCOCC(=O)N(CC)c1cn(-c2cccnc2)nc1Cl [1−220] | ≥ 80% |
| CCN(C(=O)C(C)CS(=O)(=O)N(C)C)c1cn(-c2cccnc2)nc1Cl (stereo not shown) [1−596] | ≥ 80% |
| CSCC(C)C(=O)Nc1cn(-c2cccnc2)nc1Cl (stereo not shown) [1−074] | ≥ 80% |
| CCN(C(N)=O)c1cn(-c2cccnc2)nc1Cl [1−572] | ≥ 80% |
| CCN(C(=O)C(C)CSC)c1cn(-c2cccnc2)nc1C(F)(F)F (stereo not shown) [1−523] | ≥ 80% |
| CCN(C(=O)C(C)SC(C)=O)c1cn(-c2cccnc2)nc1Cl (stereo not shown) [1−245] | ≥ 80% |
| CCN(C(=O)CCCS(C)(=O)=O)c1cn(-c2cccnc2)nc1Cl [1−528] | ≥ 80% |
| CNC(=S)Nc1cn(-c2cccnc2)nc1Cl [1−552] | ≥ 80% |
| CC(C)NC(=S)Nc1cn(-c2cccnc2)nc1Cl [1−554] | ≥ 80% |
| CC(C)(C)OC(=O)N(CC#N)c1cn(-c2cccnc2)nc1Cl [1−522] | ≥ 80% |
| CC(CS(C)(=O)=O)C(=O)Nc1cn(-c2cccnc2)nc1Cl (stereo not shown) [1−494] | ≥ 80% |
| C[C@H](CS(C)(=O)=O)C(=O)N(C)c1cn(-c2cccnc2)nc1Cl [1−054(S)−(+)] | ≥ 80% |
| CCSC(C)C(=Nc1cn(-c2cccnc2)nc1Cl)SC (stereo not shown) [3−006, メチル N−3−クロロ−1−(ピリジン−3−イル)−1H−ピラゾール−4−イル−2−(エチルチオ)プロパンイミドチオエート] | ≥ 80% |
| CCN(C(=O)CSCC(OC)OC)c1cn(-c2cccnc2)nc1Cl [1−434] | ≥ 80% |
| CCc1nn(-c2cccnc2)cc1N(CC)C(=O)C(C)CSC (stereo not shown) [1−484] | ≥ 80% |
| CCN(C(=O)C(=O)Nc1ccccc1)c1cn(-c2cccnc2)nc1Cl [1−464] | ≥ 80% |
| CCN(C(=O)CCC[S+](C)[O-])c1cn(-c2cccnc2)nc1Cl (stereo not shown) [1−527] | ≥ 80% |
| CCNC(=S)Nc1cn(-c2cccnc2)nc1C [1−549] | ≥ 80% |
| Cc1c(NC(=O)OC(C)(C)C)cnn1-c1cccnc1 [5−001, tert−ブチル 5−メチル−1−(ピリジン−3−イル)−1H−ピラゾール−4−イルカーバメート] | ≥ 80% |
| C=CCNC(=O)N(CC)c1cn(-c2cccnc2)nc1Cl [1−595] | ≥ 80% |
| CCNC(=O)NCC(=O)N(CC)c1cn(-c2cccnc2)nc1Cl [1−375] | ≥ 80% |
| CN(C(=O)NCC(F)(F)F)c1cn(-c2cccnc2)nc1Br [1−586] | ≥ 80% |
| CCN(C(=O)NCC(F)(F)F)c1cn(-c2cccnc2)nc1Cl [1−501] | ≥ 80% |

Same assay, conditions: 96 h, read-out: efficacy (number of insects with abnormal behaviour due to compound / number released × 100)

| SMILES | pest or weed control at 10 µg/cm2 |
| --- | --- |
| O=C(NCCCl)Nc1cn(-c2cccnc2)nc1Cl [1−593] | ≥ 80% |

What follows are compounds tested on American dog tick (Dermacentor variabilis) first nymphs [American dog tick(Dermacentor variabilis)第1若虫] (assay: Efficacy test against American dog tick (Test Example 2), glass container film contact). Details: 96 h, 10μg/cm2, 5 first nymphs (mixed sex), 25℃, 4 days, duplicate, read-out: efficacy (number with abnormal behaviour due to compound / number released × 100).
Format: in vivo

| SMILES | pest or weed control at 10 µg/cm2 |
| --- | --- |
| CCCN(C(=O)CCSC)c1cn(-c2cccnc2)nc1Cl [1−063] | ≥ 80% |
| CSCCN(C(C)=O)c1cn(-c2cccnc2)nc1Cl [1−186] | ≥ 80% |
| CCN(C(=O)CCSC)c1cn(-c2cccnc2)nc1Cl [1−033] | ≥ 80% |
| CCN(C(=O)C(C[S+](C)[O-])OC)c1cn(-c2cccnc2)nc1Cl (stereo not shown) [1−199] | ≥ 80% |
| CC(C)(C)OC(=O)Nc1cn(-c2cccnc2)nc1Cl [1−046, tert−ブチル 3−クロロ−1−(ピリジン−3−イル)−1H−ピラゾール−4−イルカーバメート] | ≥ 80% |
| CCN(C(=O)NCCSC)c1cn(-c2cccnc2)nc1C [1−060] | ≥ 80% |
| CCON=C(CSC)C(=O)N(CC)c1cn(-c2cccnc2)nc1Cl (single isomer, unassigned) [1−157] | ≥ 80% |
| CCN(C(=O)CC(CSC)=NOC)c1cn(-c2cccnc2)nc1Cl [1−367] | ≥ 80% |
| CCN(C(=O)COCSC)c1cn(-c2cccnc2)nc1Cl [1−067] | ≥ 80% |
| CCCCON=C(CSC)C(=O)N(CC)c1cn(-c2cccnc2)nc1Cl [1−184] | ≥ 80% |
| Cc1nn(-c2cccnc2)cc1N(C)C(N)=O [1−094] | ≥ 80% |
| CCN(C(=O)CC[S+]([O-])CC(F)(F)F)c1cn(-c2cccnc2)nc1Cl (stereo not shown) [1−154] | ≥ 80% |
| CCN(C(=O)CCSC)c1cnn(-c2cccnc2)c1 [1−044] | ≥ 80% |
| C=CCN(C(=O)CCSC)c1cn(-c2cccnc2)nc1Cl [1−064] | ≥ 80% |
| CC(C)(C)OC(=O)Nc1cn(-c2cccnc2)nc1Br [1−188, tert−ブチル 3−ブロモ−1−(ピリジン−3−イル)−1H−ピラゾール−4−イルカーバメート] | ≥ 80% |
| CCN(C(C)=O)c1cn(-c2cccnc2)nc1Cl [1−149] | ≥ 80% |
| CCN(C(=O)CC[S+](C)[O-])c1cn(-c2cccnc2)nc1C (stereo not shown) [1−110] | ≥ 80% |
| CCN(C(=O)CCS(=O)(=O)CC(F)(F)F)c1cn(-c2cccnc2)nc1Cl [1−155] | ≥ 80% |
| CCN(C(=O)COC(C)(C)C)c1cn(-c2cccnc2)nc1Cl [1−439] | ≥ 80% |
| CCN(C(=O)OC(C)(C)C)c1cn(-c2cccnc2)nc1Cl [1−056, tert−ブチル 3−クロロ−1−(ピリジン−3−イル)−1H−ピラゾール−4−イル(エチル)カーバメート] | ≥ 80% |
| CSCCC(=O)N(C)c1cn(-c2cccnc2)nc1C [1−018, N−メチル−N−{3−メチル−1−(ピリジン−3−イル)−1H−ピラゾール−4−イル}−3−(メチルチオ)プロパンアミド] | ≥ 80% |
| CCON=C(C[S+](C)[O-])C(=O)N(CC)c1cn(-c2cccnc2)nc1Cl (stereo not shown) [1−208] | ≥ 80% |
| Cc1nn(-c2cccnc2)cc1NC(=O)NCC(F)(F)F [1−032] | ≥ 80% |
| CCCON=C(CSC)C(=O)N(CC)c1cn(-c2cccnc2)nc1Cl [1−173] | ≥ 80% |
| CCN(C(=O)OC(C)(C)C)c1cn(-c2cccnc2)nc1OC [1−395] | ≥ 80% |
| CC(=O)N(C)c1cn(-c2cccnc2)nc1Cl [1−148] | ≥ 80% |
| CCN(C(=O)C(CSC)=NOC(C)C)c1cn(-c2cccnc2)nc1Cl [1−172] | ≥ 80% |
| CCSC(C)C(=S)Nc1cnn(-c2cccnc2)c1 (stereo not shown) [1−480] | ≥ 80% |

| SMILES | pest or weed control at 10 µg/cm2 |
| --- | --- |
| CCN(C(=O)C(C)SC(C)C)c1cn(-c2cccnc2)nc1Cl (stereo not shown) [1−248] | ≥ 80% |
| CSCC(=O)N(C)C(C)=Nc1cn(-c2cccnc2)nc1C [3−004, N−メチル−N−[1−{3−メチル−1−(ピリジン−3−イル)−1H−ピラゾール−4−イルイミノ}エチル]−2−(メチルチオ)アセタミド] | ≥ 80% |
| CCN(C(=O)CC(=NOC)C(F)(F)F)c1cn(-c2cccnc2)nc1Cl [1−303] | ≥ 80% |
| CCC(CSC)C(=O)N(C)c1cn(-c2cccnc2)nc1Cl (stereo not shown) [1−084] | ≥ 80% |
| COCN(C(=O)C(C)CSC)c1cn(-c2cccnc2)nc1Cl (stereo not shown) [1−086] | ≥ 80% |
| CON=C(COCC(F)(F)F)C(=O)N(C)c1cn(-c2cccnc2)nc1Cl [1−273] | ≥ 80% |
| CSCCC(=O)Nc1cn(-c2cccnc2)nc1Cl [1−058] | ≥ 80% |
| CSCCC(=O)Nc1cnn(-c2cccnc2)c1 [1−006] | ≥ 80% |
| CCN(C(=O)CCSC(C)C)c1cn(-c2cccnc2)nc1Cl [1−123] | ≥ 80% |
| C=C1CCN(c2cn(-c3cccnc3)nc2Cl)C1=O [1−133, 1−{3−クロロ−1−(ピリジン−3−イル)−1H−ピラゾール−4−イル}−3−メチレンピロリジン−2−オン] | ≥ 80% |
| CSCC(C)(C)C(=O)N(C)c1cn(-c2cccnc2)nc1Cl [1−134, N−{3−クロロ−1−(ピリジン−3−イル)−1H−ピラゾール−4−イル}−N,2,2−トリメチル−3−(メチルチオ)プロパンアミド] | ≥ 80% |
| CCN(C(=O)CCSCC(F)(F)F)c1cn(-c2cccnc2)nc1Cl [1−124] | ≥ 80% |
| CCN(C(=O)C(C)CS(C)(=O)=O)c1cn(-c2cccnc2)nc1C (stereo not shown) [1−490] | ≥ 80% |
| CCSCC(=O)N(CC)c1cn(-c2cccnc2)nc1Cl [1−107] | ≥ 80% |
| CON=C(CSC)C(=O)N(C)c1cn(-c2cccnc2)nc1Cl (single isomer, unassigned) [1−142] | ≥ 80% |
| CCCC(=O)N(CC)c1cn(-c2cccnc2)nc1Cl [1−151] | ≥ 80% |
| CCCN(C(=O)C(C)CSC)c1cn(-c2cccnc2)nc1Cl (stereo not shown) [1−066] | ≥ 80% |
| CCN(C(=O)C(CSC)c1ccccc1)c1cn(-c2cccnc2)nc1Cl (stereo not shown) [1−216] | ≥ 80% |
| CS(=O)(=O)C1CCCN(c2cnn(-c3cccnc3)c2)C1=O (stereo not shown) [1−035] | ≥ 80% |
| CCSC(C)C(=NOC)Nc1cn(-c2cccnc2)nc1Cl (stereo not shown) [1−356, N−{3−クロロ−1−(ピリジン−3−イル)−1H−ピラゾール−4−イル}−2−(エチルチオ)−N’−メトキシプロパンイミダミド] | ≥ 80% |
| C=CC(=O)N(CC)c1cn(-c2cccnc2)nc1Cl [1−152, N−{3−クロロ−1−(ピリジン−3−イル)−1H−ピラゾール−4−イル}−N−エチルアクリルアミド] | ≥ 80% |
| C=CCON=C(CSC)C(=O)N(CC)c1cn(-c2cccnc2)nc1Cl [1−222] | ≥ 80% |
| CC(C)(C)OC(=O)N(CC1CC1)c1cn(-c2cccnc2)nc1Cl [1−343] | ≥ 80% |
| CCN(C(=O)CCC(F)=C(F)F)c1cn(-c2cccnc2)nc1Cl [1−418] | ≥ 80% |
| CC(C)(C)OC(=O)N(CC(F)(F)F)c1cn(-c2cccnc2)nc1Cl [1−324] | ≥ 80% |
| O=C(NCC(F)(F)F)Nc1cn(-c2cccnc2)nc1Cl [1−158] | ≥ 80% |
| CCN(C(=O)CNC(=O)C(F)(F)F)c1cn(-c2cccnc2)nc1Cl [1−409] | ≥ 80% |

Same assay, conditions: 96 h, read-out: efficacy (number with abnormal behaviour due to compound / number released × 100)

| SMILES | pest or weed control at 10 µg/cm2 |
| --- | --- |
| CCN(C(=O)C(CSC)=NOCC[Si](C)(C)C)c1cn(-c2cccnc2)nc1Cl [1−268] | ≥ 80% |
